Laboratory results published in patent publication US20130005733A1, “COMBINATION ANTI-CANCER THERAPY” (OSI Pharmaceuticals, LLC, priority 2010, published 2013).

Key:
p-4E-BP1(T37/46) = assay: Western blot of phospho-4E-BP1; assay type: cell-based, Human; conditions: 300 nM each agent; 2 hours
Method: (§1) Cell extracts were prepared by detergent lysis (50 mM Tris-HCl, pH 8.0, 150 mM NaCl, 1% NP-40, 0.5% sodium deoxycholate, 0.1% SDS, containing protease inhibitor (P8340, Sigma, St. Louis, Mo.) and phosphatase inhibitor (P5726, Sigma, St. Louis, Mo.) cocktails. The soluble protein concentration was determined by micro-BSA assay (Pierce, Rockford, Ill.). Pixel density was determined using AlphaEaseFC software (Alpha Innotech, San Leandro, Calif.). Protein immunodetection was performed by electrophoretic transfer of SDS-PAGE separated proteins to nitrocellulose, incubation with antibody, and chemiluminescent second step detection (PicoWest; Pierce, Rockford, Ill.). The antibodies included: 4E-BP1, p-4E-BP1(T37/46), PRAS40, and pPRAS40 ([…]). Antibodies were obtained from Cell Signaling Technology, Inc. (Danvers, Mass.). […] The media was removed, cells were washed two times with PBS, and cells were lysed as previously described.

Ovcar-5 cells = assay: Caspase 3/7 Glo apoptosis assay; assay type: cell-based, Human; conditions: 48 hrs after treatment, OSI-027 varying doses alone or with 5 uM OSI-906
Method: Measurement of apoptosis: […] Cell lines were seeded at a density of 3000 cells per well in a 96-well plate. 24 hours after plating cells were dosed with varying concentrations of drug, either as a single agent or in combination. […] The caspase 3/7 activity was normalized to cell number per well, using a parallel plate treated with Cell Titer Glo (Promega Corporation, Madison, WI). Signal for each well was normalized using the following formula: Caspase 3/7 Glo luminescence units/Cell Titer Glo fraction of DMSO control. All graphs were generated using PRISM® software (Graphpad Software, San Diego, Calif.). […] A theoretical curve was calculated for combined inhibition using the equation: Ebliss=EA+EB−EA*EB, where EA and EB are the fractional inhibitions obtained by drug A alone and drug B alone at specific concentrations. […] If the experimentally measured fractional inhibition was less than Ebliss the combination was said to be synergistic. If the experimentally measured fractional inhibition was greater than Ebliss the combination was said to be antagonistic. For dose response curves, the bliss additivity was calculated for varying doses of drug A when combined with a constant dose of drug B. This allowed an assessment as to whether drug B affected the potency of drug A or shifted its intrinsic activity. […]

Igrov1 = assay: Cell Titer Glo proliferation assay, ovarian cell line panel; assay type: cell-based, Human; conditions: Igrov1, single agent, cell viability at 72 hours
Method: Cell lines: Human cancer cell lines were purchased from the American Type Culture Collection (ATCC). The cell lines Ovcar-3, MDAH2774, Caov3, lgrov-1, and MDA-MB-231 were grown in media as prescribed by the ATCC, containing 10% FCS. HNSCC 1483, HNSCC 1386, HNSCC 1186 were a gift from Memorial Sloan Kettering and were cultured in 1:1 DMEM: Hams F12 with 10% FCS. Ovcar-4, Ovcar-5, and Ovcar-8 were obtained from the NCI and were grown in RPMI with 10% FCS. Measurement of proliferation: Inhibition of proliferation was measured using the Cell Titer Glo Assay (Promega Corporation, Madison, WI). Cell lines were seeded at a density of 3000 cells per well in a 96-well plate. 24 hours after plating cells were dosed with varying concentrations of drug, either as a single agent or in combination. […] Inhibition of proliferation, relative to vehicle-treated controls was expressed as a fraction of 1 and graphed using PRISM® software (Graphpad Software, San Diego, Calif.).

[1] = test system: IR phosphorylation in MDAH2774 ovarian carcinoma cells; assay: Phospho-RTK antibody array (Proteome Profiler); assay type: cell-based, Human; conditions: MDAH2774 (KRAS mutant); 3 uM each agent; 2 hour treatment
Text: (§2) Measurement of phosphorylated receptor tyrosine kinases: A commercially available membrane-based antibody array (Proteome Profiler Array, R&D Systems, Minneapolis, Minn.) was used to simultaneously co-immunoprecipitate 42 different receptor tyrosine kinases (RTKs) in duplicate and measure specific phospho-epitopes on each. The phospho-epitopes were detected by chemiluminescence, quantitated based on pixel density for each pair of spots and expressed relative to vehicle-treated controls. Pixel density was determined using AlphaEaseFC software (Alpha Innotech, San Leandro, Calif.).

[2] = test system: IR phosphorylation in Ovcar-3 ovarian carcinoma cells; assay: Phospho-RTK antibody array (Proteome Profiler); assay type: cell-based, Human; conditions: Ovcar-3 (KRAS wt); 3 uM each agent; relative to DMSO
Text: as §2

[3] = test system: IGF-1R phosphorylation in H460 lung carcinoma cells; assay: Phospho-RTK antibody array (Proteome Profiler); assay type: cell-based, Human; conditions: 3 uM, relative to DMSO
Text: as §2

[4] = test system: IGF-1R phosphorylation in MDAH2774 ovarian carcinoma cells; assay: Phospho-RTK antibody array (Proteome Profiler); assay type: cell-based, Human; conditions: MDAH2774 (KRAS mutant); 3 uM each agent; 2 hour treatment
Text: as §2

H460 NSCLC xenograft = assay: Tumor growth inhibition in vivo, xenograft; conditions: single agent
Method: Evaluation of tumor growth inhibition in vivo: Evaluation of tumor growth inhibition in vivo was conducted at OSI facilities with the approval of the Institutional Animal Care and Use Committee (IACUC) in an American Association for Accreditation of Laboratory Animal Care (AAALAC) accredited vivarium and in accordance with the Institute of Laboratory Animal Research (Guide for the Care and Use of Laboratory Animals, NIH, Bethesda, Md., USA). For this study, female athymic nude nu/nu CD-1 mice (6-8 wks, 20-28 g, Charles River Laboratories, Wilmington, Mass., USA) were allowed to acclimate for a minimum of one week prior to initiation of the study. To evaluate tumor growth inhibition, cells were harvested from cell culture flasks during exponential cell growth, washed twice with sterile PBS, counted and resuspended in PBS to a suitable concentration before subcutaneous implantation on the right flank of nu/nu CD-1 mice. Tumors were established to 200±50 mm^3 in size before randomization into treatment groups of 8 mice each. […]
where Tt=median tumor volume of treated at time t; T0=median tumor volume of treated at time 0; Ct=median tumor volume of control at time t; and C0=median tumor volume of control at time 0. The average TGI over the dosing period was then calculated and reported. […]

[5] = test system: pPRAS40 (T246) in MDAH2774; assay: Western blot of phospho-PRAS40; assay type: cell-based, Human; conditions: 300 nM each agent, 2 hours
Method: as §1

Ovcar3 = assay: Cell Titer Glo proliferation assay, ovarian cell line panel; assay type: cell-based, Human; conditions: Ovcar3, single agent, cell viability at 72 hours
Method: (§3) Cell lines: Human cancer cell lines were purchased from the American Type Culture Collection (ATCC). The cell lines Ovcar-3, MDAH2774, Caov3, lgrov-1, and MDA-MB-231 were grown in media as prescribed by the ATCC, containing 10% FCS. HNSCC 1483, HNSCC 1386, HNSCC 1186 were a gift from Memorial Sloan Kettering and were cultured in 1:1 DMEM: Hams F12 with 10% FCS. Ovcar-4, Ovcar-5, and Ovcar-8 were obtained from the NCI and were grown in RPMI with 10% FCS. Measurement of proliferation: Inhibition of proliferation was measured using the Cell Titer Glo Assay (Promega Corporation, Madison, WI). Cell lines were seeded at a density of 3000 cells per well in a 96-well plate. 24 hours after plating cells were dosed with varying concentrations of drug, either as a single agent or in combination. […] Inhibition of proliferation, relative to vehicle-treated controls was expressed as a fraction of 1 and graphed using PRISM® software (Graphpad Software, San Diego, Calif.). Analysis of Synergy: The Bliss additivism model was used to classify the effect of combining OSI-027 and OSI-906 as additive, synergistic or antagonistic. A theoretical curve was calculated for combined inhibition using the equation: Ebliss=EA+EB−EA*EB, where EA and EB are the fractional inhibitions obtained by drug A alone and drug B alone at specific concentrations. Here, Ebliss is the fractional inhibition that would be expected if the combination of the two drugs was exactly additive. If the experimentally measured fractional inhibition was less than Ebliss the combination was said to be synergistic. If the experimentally measured fractional inhibition was greater than Ebliss the combination was said to be antagonistic. For dose response curves, the bliss additivity was calculated for varying doses of drug A when combined with a constant dose of drug B. This allowed an assessment as to whether drug B affected the potency of drug A or shifted its intrinsic activity. All plots were generated using Graphpad Prism software.

Ovcar-5 = assay: as above; assay type: cell-based, Human; conditions: Ovcar-5 (KRAS mutant), single agent, cell viability at 72 hours
Method: as §3

MDAH2774 = assay: as above; assay type: cell-based, Human; conditions: MDAH2774 (KRAS mutant), single agent, cell viability at 72 hours
Method: as §3

## COc1cccc2cc(-c3nc([C@H]4CC[C@H](C(=O)O)CC4)n4ncnc(N)c34)[nH]c12 [OSI-027, trans-4-[4-amino-5-(7-methoxy-1H-indol-2-yl)imidazo[5,1-f][1,2,4]triazin-7-yl]cyclohexanecarboxylic acid]
p-4E-BP1(T37/46)
  phosphorylation of 4E-BP1: reduced
Ovcar-5 cells
  induction of apoptosis (caspase 3/7 activity): did not significantly induce apoptosis
Igrov1
  sensitivity of cell line (inhibition of proliferation): most sensitive
[1]
  phosphorylation of IR: increased
[2]
  phosphorylation of IR: hyperphosphorylated
[3]
  phosphorylation of IGF-1R: hyperphosphorylation of IGF-1R
[4]
  phosphorylation of IGF-1R: increased
H460 NSCLC xenograft; OSI-027 50 mg/kg oral daily for 14 days
  tumor growth inhibition (TGI): 66%
[5]
  inhibition of phosphor-PRAS40: partial inhibition
Ovcar3
  sensitivity of cell line (inhibition of proliferation): most sensitive
Ovcar-5
  sensitivity of cell line (inhibition of proliferation): relatively insensitive
MDAH2774
  sensitivity of cell line (inhibition of proliferation): relatively insensitive

## C[C@]1(O)C[C@@H](c2nc(-c3ccc4ccc(-c5ccccc5)nc4c3)c3c(N)nccn32)C1 [OSI-906, cis-3-[8-amino-1-(2-phenylquinolin-7-yl)-imidazo[1,5-a]pyrazin-3-yl]-1-methylcyclobutanol]
p-4E-BP1(T37/46)
  phosphorylation of 4E-BP1: No significant decrease
Igrov1
  sensitivity of cell line (inhibition of proliferation): among the least sensitive
[1]
  phosphorylation of IR: reduced
[2]
  phosphorylation of IR: fully attenuates phosphor-IR, below the basal level
[4]
  phosphorylation of IGF-1R: reduced
H460 NSCLC xenograft; OSI-906 60 mg/kg once-daily for 14 days
  tumor growth inhibition (TGI): 69%
[5]
  inhibition of phosphor-PRAS40: inhibits phosphor-PRAS40 to a greater degree
Ovcar3
  sensitivity of cell line (inhibition of proliferation): among the least sensitive
Ovcar-5
  sensitivity of cell line (inhibition of proliferation): most sensitive
MDAH2774
  sensitivity of cell line (inhibition of proliferation): most sensitive

## Nc1nccn2c1c(-c1cc3cccc(Cl)c3[nH]1)nc2[C@H]1CC[C@H](C(=O)O)CC1 [OXA-01]
[3]
  phosphorylation of IGF-1R: increases p-IGF-1R to a greater degree than erlotinib

## C#Cc1cccc(Nc2ncnc3cc(OCCOC)c(OCCOC)cc23)c1 [erlotinib, reference compound]
[3]
  phosphorylation of IGF-1R: hyperphosphorylation of IGF-1R
